This note sets out measurements from ChEMBL document CHEMBL5365425, “Discovery of novel methionine adenosyltransferase 2A (MAT2A) allosteric inhibitors by structure-based virtual screening” (Bioorg Med Chem Lett, 2023).

SMILES strings stand for the structures. ≈ marks a conversion by molar mass, not a printed value. Calls of active or inactive are those of the source. No cut-off for these calls is given here.

For data set [1], the target named is T1, S-adenosylmethionine synthase isoform type-2 (Homo sapiens, UniProt P31153). As to the kind of experiment: Inhibition of recombinant human MAT2A.
Data set [2] can be described thus: Lipophilicity, log D of compound at pH 7.4. In kind it is physicochemical. The settings on record: buffer.
For data set [3], the system named is HCT-116. As to the kind of experiment: Antiproliferative activity against MTAP-/- isogenic variant of human HCT-116 cells assessed as inhibition of cell growth by proliferation assay. Type of data set: functional, cell-based.
Data set [4] relates to HCT-116. As to the kind of experiment: Antiproliferative activity against human HCT-116 cells assessed as inhibition of cell growth by proliferation assay. In kind it is functional, cell-based.
The nature of data set [5]: Solubility of the compound. In kind it is physicochemical.
The target in data set [6] is T2, S-adenosylmethionine synthase isoform type-1 (Homo sapiens, UniProt Q00266). As to the kind of experiment: Inhibition of recombinant human MAT1A.
T2 sequence (Q00266 whole entry, canonical isoform): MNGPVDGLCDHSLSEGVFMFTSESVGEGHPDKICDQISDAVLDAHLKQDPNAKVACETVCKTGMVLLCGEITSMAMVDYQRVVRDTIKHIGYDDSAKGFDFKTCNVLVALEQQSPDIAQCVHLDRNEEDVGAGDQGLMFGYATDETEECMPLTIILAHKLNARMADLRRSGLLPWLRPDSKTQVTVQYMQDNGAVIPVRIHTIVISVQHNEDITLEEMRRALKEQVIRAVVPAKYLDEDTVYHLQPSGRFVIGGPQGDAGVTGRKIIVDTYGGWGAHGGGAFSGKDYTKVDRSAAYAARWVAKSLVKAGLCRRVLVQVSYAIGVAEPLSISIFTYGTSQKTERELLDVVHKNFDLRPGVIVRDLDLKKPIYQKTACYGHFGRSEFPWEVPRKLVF
In data set [7] the target is T2, S-adenosylmethionine synthase isoform type-1. As to the kind of experiment: Inhibition of human MAT1A.
The target of data set [8] is T1, S-adenosylmethionine synthase isoform type-2. In words: Inhibition of human MAT2A.
Target sequence in this assay (P31153 whole entry, canonical isoform): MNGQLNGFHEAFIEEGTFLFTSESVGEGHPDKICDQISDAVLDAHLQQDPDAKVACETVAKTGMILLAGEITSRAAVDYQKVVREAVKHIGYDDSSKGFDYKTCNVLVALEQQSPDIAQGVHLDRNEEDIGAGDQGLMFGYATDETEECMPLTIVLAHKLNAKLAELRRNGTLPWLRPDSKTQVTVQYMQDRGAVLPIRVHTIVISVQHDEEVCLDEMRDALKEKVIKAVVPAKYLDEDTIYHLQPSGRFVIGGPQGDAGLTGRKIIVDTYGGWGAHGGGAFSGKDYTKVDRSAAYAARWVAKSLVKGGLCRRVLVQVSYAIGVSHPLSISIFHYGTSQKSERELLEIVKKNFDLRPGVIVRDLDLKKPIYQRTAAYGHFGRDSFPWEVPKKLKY
Data set [9] deals with T2, S-adenosylmethionine synthase isoform type-1. As to the kind of experiment: Activation of human MAT1A. The following applies: filed as activator.

By IC50 is commonly meant the concentration that gives 50% inhibition. In general, logD refers to the decadic logarithm of the distribution of all forms, ionised or not, between an organic phase and buffer at a given pH. The low end stands for a more hydrophilic compound, the high end for a more lipophilic compound. As usually defined, the solubility is how much of the substance goes into solution per volume. Higher therefore signals much dissolved substance. For `CC(C)n1ncc2c(C(=O)Nc3ccc4n[nH]cc4c3)cc(C3CC3)nc21`, the IC50 in data set [1] is 1.84 µM; in the data set with HCT-116 [3], above 10 µM; with HCT-116 [4] it was above 10 µM. Further, in data set [2], the logD came out at 3.3. Besides, in data set [5], the concentration in solution (solubility) was 19 µM (≈ 6.85 µg/mL).
Regarding `O=c1nc(N2CC[C@@H](F)C2)c2ccc(Cl)cc2n1-c1ccccc1`, the inhibition result in [1] and in data set [6] was “Active” each time. The molecule also came in with an IC50 in data set [7] of 0.813 µM.
For the molecule `CCn1ncc2c(C(=O)Nc3ccc4c(c3)ncn4C)cc(C3CC3)nc21`, the results for the half-inhibitory concentration (IC50) (in [1]; in the data set with HCT-116 [3]; in the data set with HCT-116 [4]) were 0.303 µM, 9.96 µM and above 10 µM, respectively. This molecule gave a log distribution coefficient (logD) in [2] of 2.6. The molecule further had a solubility in [5] of 47 µM (≈ 16.9 µg/mL).
In the case of `CC(C)n1ncc2c(C(=O)Nc3ccc4ncccc4c3)cc(C3CC3)nc21`, the half-inhibitory concentration (IC50) is 3.71 µM in data set [1], above 10 µM with HCT-116 [3] and above 10 µM with HCT-116 [4]. The same molecule had a log distribution coefficient (logD) in data set [2] of 3.7. The same molecule showed a solubility in [5] of 4 µM (≈ 1.49 µg/mL).
In the case of `CN(C)CCc1nnc2cc(-c3ccccc3)c3cc(Cl)ccc3n12`, the inhibition entry in data set [1] and in [6] was “Active” each time. This molecule also had an IC50 in data set [8] of 0.412 µM. Besides, the result in data set [9] was Active.
For the molecule `COc1ccc2oc3cc(C)[n+]([O-])c(-c4ccccc4)c3c2c1`, in data set [1], the half-inhibitory concentration (IC50) was found to be 1.31 µM. This molecule also came in with a logD in [2] of 2.3. In data set [5], this molecule displayed a solubility of 15 µM (≈ 4.58 µg/mL).
As for `COc1ccc2oc3cc(C)[n+]([O-])c(-c4ccc(C)cc4)c3c2c1`, the IC50 in data set [1] was found to be 0.051 µM; in the data set with HCT-116 [3], 4.96 µM; in the data set with HCT-116 [4] it was 9.23 µM. Also, in data set [2], the logD was found to be 2.7. The molecule further came in with a solubility in data set [5] of 11 µM (≈ 3.51 µg/mL).
For `CCn1ncc2c(C(=O)Nc3ccc4[nH]ncc4c3)cc(C3CC3)nc21`, in that order: 0.469 µM, above 10 µM, above 10 µM, 2.7 and 23 µM (≈ 7.97 µg/mL).
Regarding `CC(C)n1ncc2c(C(=O)Nc3ccc4nccnc4c3)cc(C3CC3)nc21`, the IC50 in data set [1] is above 10 µM. Moreover, the logD in data set [2] is 3.5. Besides, the solubility in data set [5] came to 2 µM (≈ 0.745 µg/mL).
Turning to `COc1ccc(-c2c(Nc3ccccn3)[nH]c3c(C4=CCCCC4)c(-c4ccccc4)nn3c2=O)cc1`, the inhibition entry in [1] and in data set [6] was “Active” in each case. For the same molecule, the outcome in data set [9] was Active.
With `CCn1ncc2c(C(=O)Nc3ccc4ncsc4c3)cc(C3CC3)nc21`, the IC50 in data set [1] is 0.172 µM; in the data set with HCT-116 [3] it was 3.86 µM; with HCT-116 [4], above 10 µM. This molecule also returned a log distribution coefficient (logD) in data set [2] of 3.4. In data set [5], this molecule had a solubility of 1 µM (≈ 0.363 µg/mL).
As to `CCn1ncc2c(C(=O)Nc3ccc4ncccc4c3)cc(C3CC3)nc21`, the concentration for half-maximal inhibition (IC50) was 0.277 µM in data set [1], 6.41 µM in the data set on HCT-116 [3] and above 10 µM in the data set on HCT-116 [4]. This molecule registered a logD in data set [2] of 3.2. The solubility in [5] came to 13 µM (≈ 4.65 µg/mL).
`CCn1ncc2c(C(=O)Nc3ccc4nn(C)c(C)c4c3)cc(C3CC3)nc21`: the IC50 was 0.09 µM in [1], 3.19 µM in the data set with HCT-116 [3] and above 10 µM with HCT-116 [4]. In [2], this molecule showed a log distribution coefficient (logD) of 2.9. Besides, the concentration in solution in data set [5] (solubility) was 9 µM (≈ 3.37 µg/mL).
For `CCn1cc2cc(NC(=O)c3cc(C4CC4)nc4c3cnn4CC)ccc2n1`, in that order: 0.068 µM, 2.42 µM, above 10 µM, 3.1 and 32 µM (≈ 12 µg/mL).
For `CC(C)n1ncc2c(C(=O)Nc3ccc4nn(C)cc4c3)cc(C3CC3)nc21`, in that order: 0.403 µM, above 10 µM, above 10 µM, 3.3 and 3 µM (≈ 1.12 µg/mL).
Regarding `CCCCn1ncc2c(C(=O)Nc3ccc4nn(C)cc4c3)cc(C3CC3)nc21`, in data set [1], the IC50 was above 10 µM. Also, the logD in data set [2] was determined as 3.2. In data set [5], this molecule registered a solubility of 4 µM (≈ 1.55 µg/mL).
As to `CCn1ncc2c(C(=O)Nc3ccc4nn(C)cc4c3)cc(C3CC3)nc21`, the IC50 is 0.078 µM in [1], 1.71 µM in the data set on HCT-116 [3] and above 10 µM in the data set on HCT-116 [4]. In data set [2], the logD came out at 2.8. Further, the concentration in solution in data set [5] (solubility) was 2 µM (≈ 0.721 µg/mL).
Taken in the same sequence, the figures for `CCn1ncc2c(C(=O)Nc3ccc(OC)cc3)cc(C3CC3)nc21` were 0.13 µM, 5.27 µM, above 10 µM, 3.6 and 3 µM (≈ 1.01 µg/mL).
With `CCn1ncc2c(C(=O)N(C)c3ccc4nn(C)cc4c3)cc(C3CC3)nc21`, the IC50 in data set [1] is above 10 µM. Besides, the pH-dependent lipophilicity (logD) in [2] came out at 2.2. The molecule also had a solubility in data set [5] of 94 µM (≈ 35.2 µg/mL).
Consider `CCn1ncc2c(C(=O)Nc3ccc4ncn(C)c4c3)cc(C3CC3)nc21`, for which the 50% inhibitory concentration (IC50) is 0.205 µM in data set [1], 7.17 µM in the data set with HCT-116 [3] and above 10 µM in the data set with HCT-116 [4]. The same molecule gave a logD in data set [2] of 2.6. This molecule displayed a solubility in data set [5] of 49 µM (≈ 17.7 µg/mL).
Regarding `Cn1cc2cc(-n3cc4cnc(NCC(F)(F)F)nc4c(-c4ccc(OC(F)F)cc4)c3=O)ccc2n1`, the inhibition result in data set [1] and in data set [6] was “Active” throughout. The figures for the IC50 in data set [7] and in [8] were above 10 µM and 0.05 µM, respectively.
As to `COc1ccc(-c2c3c(cc(C)[n+]2[O-])oc2ccc(OC)cc23)cc1`, the IC50 in data set [1] is 0.145 µM; in the data set on HCT-116 [3], 7.55 µM; with HCT-116 [4], above 10 µM. Further, the log distribution coefficient (logD) in [2] was determined as 2.5. The solubility in [5] is 42 µM (≈ 14.1 µg/mL).
On to `COc1ccc2oc3cc(C)[n+]([O-])c(-c4ccc(Cl)cc4)c3c2c1`, for which the IC50 in data set [1] amounted to 0.122 µM; with HCT-116 [3] it was 3.12 µM; in the data set with HCT-116 [4], 7.93 µM. This molecule registered a log distribution coefficient (logD) in [2] of 2.8. In data set [5], this molecule returned a solubility of 14 µM (≈ 4.76 µg/mL).
